Test: Inhibitory concentration required to reduce cellular survival to 50% towards murine tumor EMT6/KU cell line
Format: functional, cell-based
Conditions: Mus musculus

## O=c1[nH]c(=O)n([C@H]2C[C@H](O)[C@@H](CO)O2)cc1F [FLOXURIDINE]
  IC50: 8.1 µM

Source: ChEMBL document CHEMBL1144384, “Hypoxia-selective activation of 5-fluorodeoxyuridine prodrug possessing indolequinone structure: radiolytic reduction and cytotoxicity characteristics” (Bioorg Med Chem Lett, 2005)
